# Tests used:
# [1] = system: excitatory behavior induced by FeCl2 in mice; test: Excitatory behavior induced by spinal intrathecal injection of FeCl2 in mice; format: in vivo, mouse; settings: 100 mg/kg p.o.; for Score (mean behavioral score): 30 min. prior to FeCl2, 0 normal to 5 death; for Percent inhibition (of mean score): vs vehicle p.o.
# Protocol: Male Slc:ICP mice (5 weeks) were used. Each group consisted of 10 mice. 5 μl of 50 mM FeCl2 in saline was injected into spinal subarchnoid space betwen the 1st sacral and the 6th lumbar segment, the behavioral responses were observed from 15 min. to 1 hr. after the intrathecal injection of FeCl2 and scored as follows.
# Score Behavioral responses
# 0: normal (no abnormal behavior)
# 1: vigorously biting lower abdomen or lower extremities
# (a) extremely biting lower body with rolling
# (b) hyperreactivity and agressive to external stmuli
# at least one of above three behavioral changes were observed
# 4: tonic convulsion or paralysis of lower extremities.
# The test compounds (100 mg/kg) were orally administered 30 min. prior to FeCl2 injection.
# [2] = system: neurological deficits caused by spinal cord compression in rats; test: Functional neurologic impairment induced by spinal cord compression in rats; format: in vivo, rat; settings: 40 mg/kg, p.o.; for neurological impairment caused by spinal cord compression (in words): Table 4(III)
# Description: (§1) Male Jcl:Wistar rats, weighing about 350 g at the time of spinal cord compression were used. A spinal cord injury was produced in rats by compressing the spinal cord with a stainless screw of 2.8 mm length and 2 mm diameter at thoracic 11 (T11) level under pentobarbital anesthesia. On the day of the operation, the screw was placed so that the end was just above the subarachnoid membrane of the spinal cord.
# (§2) On the following day, the screw was completely tightened to compress the spinal cord without penetrating the subarachnoid membrane. After compression of the spinal cord for 60 min., the screw was removed. Test compounds were given orally 5 min. after the removal of screw.
# 0; flaccid paralysis, no movement of hind limbs, no response to pinching of tail with foreceps (i.e. movement of fore limbs, biting foreceps, vocalization)
# 1; no movement of hind limbs, but responds to pinching of tail with foreceps
# 2; uncoordinated movement (loss of coordination between limbs), but can not support own weight
# 3; movement with an impairment (general coordination between limbs), but can not support own weight
# 4; walking with a slight ataxia of the hind limbs, but can support own weight
# (§3) The median neurological score of the drug-treated groups were compared with that saline-teated control group. Statistical analysis was done using the Mann-Whitney U-test. The incidence of rats showing urinary incontinence was also compared by the .chi.^2 -test.
# 5-lipoxygenase = molecular target: T1, 5-lipoxygenase (Rattus norvegicus, UniProt P12527); test: Inhibition of 5-lipoxygenase (5-HETE production in RBL-1 cells); format: cell-based; settings: for inhibition at 1 µM: 10^-6 M; for inhibition at 0.1 µM: 10^-7 M; for inhibition at 0.01 µM: 10^-8 M
# T1 construct: endogenous in cells; host or cells: RBL-1 (rat basophilic leukemia cells)
# T1 sequence (P12527 1-673): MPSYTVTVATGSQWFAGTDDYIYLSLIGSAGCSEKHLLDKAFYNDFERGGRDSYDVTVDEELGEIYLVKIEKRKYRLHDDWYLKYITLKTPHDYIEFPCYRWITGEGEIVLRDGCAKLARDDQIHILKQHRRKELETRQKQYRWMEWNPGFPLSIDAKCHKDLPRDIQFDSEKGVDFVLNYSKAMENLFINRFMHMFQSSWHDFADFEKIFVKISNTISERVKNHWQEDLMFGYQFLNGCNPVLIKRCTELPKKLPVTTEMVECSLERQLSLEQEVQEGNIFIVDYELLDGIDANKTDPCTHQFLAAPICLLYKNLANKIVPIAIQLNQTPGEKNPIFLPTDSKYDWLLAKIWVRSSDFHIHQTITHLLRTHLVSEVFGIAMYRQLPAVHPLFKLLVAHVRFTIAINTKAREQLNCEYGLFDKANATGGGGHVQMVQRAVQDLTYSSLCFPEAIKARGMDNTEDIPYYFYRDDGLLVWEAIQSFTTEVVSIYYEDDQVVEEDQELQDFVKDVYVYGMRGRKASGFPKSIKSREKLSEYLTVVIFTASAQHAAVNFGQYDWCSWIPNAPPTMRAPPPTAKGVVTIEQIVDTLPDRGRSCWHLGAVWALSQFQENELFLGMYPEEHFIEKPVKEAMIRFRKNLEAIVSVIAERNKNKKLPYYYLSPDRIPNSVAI
# Protocol: 10^7 RBL-1 cells (rat basophilic leukemia cells) were suspended in 0.5 ml of MCM (mast cell medium). […] Then 4 ml of ethanol was added, and the mixture was well shaken and kept at room temperature for 10 min.
# The mixture was centrifuged for 10 min. (2000 rpm), and the supernatant was separated. The supernatant obtained was concentrated to dryness under reduced pressure. To the residue 0.5 ml of 60 v/v % aqueous methanol was added. One hundred μl of this solution was subjected to high performance liquid chromatography for quantitative analysis of 5-HETE (5-hydroxyeicosatetraenoic acid). The amount of 5-HETE was determined by measurement of the absorbance at 237 nm with a UV absorption monitor.
# The inhibitory effect (IE) of production of 5-HETE is expressed by (1-b/a)×100, wherein a is the peak height or the area corrected with the peak due to the internal standard in the absence of the compound (I) or a pharmaceutically acceptable salt thereof, and b is the peak height or peak area corrected with the peak due to the internal standard in the presence of the compound (I) or a pharmaceutically acceptable salt thereof.
# [3] = system: generation of HHT in rat platelets; test: Inhibitory effect on the generation of 12-hydroxyheptadeca-5,8,10-trienoic acid (HHT) in rat platelets; format: cell-based; settings: rat platelet rich plasma
# Protocol: Blood was collected in 3.2 v/v % sodium citrate (0.8 ml for 7.2 ml of blood) from the abdominal aorta of male Wister rats (Jcl, 12 to 15 weeks) anesthesized with pentobarbital. Platelet rich plasma (PRP) was obtained by centrifuging the blood at 800 rpm for 10 min at room temperature. Platelet poor plasma (PPP) was prepared by centrifuging the remaining blood at 3,000 rpm for 10 min. The platelet concentration of PRP was adjusted to 1,000,000/μl with PPP. […]
# The reaction was stopped by adding 100 ml of ethanol and the mixture was allowed to stand for 10 min. at room temperature. The reaction mixture was centrifuged at 2,000 rpm for 10 min. and the supernatant obtained was evaporated. To the concentrate, 0.2 ml of 60 v/v % aqueous ethanol was added.
# 100 μl of this solution was subjected to high performance liquid chromatography for quantitative analysis of HHT. The amount of HHT was determined by measurement of absorbance at 237 nm with a UV absorption monitor.
# The inhibitory effect (IE) on the generation of HHT is expressed by (1-b/a)×100, wherein a is the peak height or the peak area corrected with the peak due to the internal standard in the absence of the compound (I) or a pharmaceutically acceptable salt thereof, and b is the peak height or the peak area corrected with the peak due to the internal standard in the compound (I) or a pharmaceutically acceptable salt thereof.
# [4] = system: urinary incontinence in rats with spinal cord compression; test: Incidence of rats showing urinary incontinence (spinal cord compression); format: in vivo, rat; set-up: Incidence of rats showing urinary incontinence: unit not given here; settings: 40 mg/kg, p.o.; for incidence of urinary incontinence (in words): Table 4(IV)
# Description: as §1, §2, §3
# [5] = system: lipid peroxide production in rat brain homogenates; test: Inhibitory action on lipid peroxide production in rat brain homogenates; format: biochemical; settings: 5 v/v % rat brain homogenate, pH 7.4, 1 hour at 37° C.; read-out: Inhibition (IC50) of lipid peroxide production
# Protocol: The male SD rat (12 weeks) brain tissue was extracted under anesthesia after depletion. The extracted brain tissue was used as 5 v/v % homogenate in phosphate buffer (pH 7.4). After incubation of the homogenate for 1 hour at 37° C., the peroxide produced was determined by the thiobarbituric acid method according to the method described in Analytical Biochemistry, 95, 551 (1979).
# Before incubation, test compounds were added in 5 v/v % homogenate so that their final concentration becomes 10^-5 M. […]
# [6] = system: neurological deficits in rats with cerebral ischemia; test: Neurological deficits in rats with experimental cerebral ischemia; format: in vivo, rat; settings: p.o.
# Protocol: Male Crj:Wistar rats, that were 7 weeks old at the time of electocauterization of the bilateral vertebral arteries, were used. Electrocauterization of the bilateral vertebral arteries was performed under pentobarbital Na (40 mg/kg, i.p.) anesthesia. Global cerebral ischemia was produced by 20 min. occlusion of both common carotid arteries 24 hr after the permanent electrocauterization of the bilateral vertebral arteries (Pulsinelli W. A. and Brierly J. B., Stroke 10, 267-272 (1979).
# The compound of Example 20 was given orally as a single dose immediately after the reperfusion of both carotid arteries.
# 1; decrease in spontaneous motor activity, piloerection, ptosis, miosis, hyperirritability, slight ataxia
# 2; moderate to servere ataxia
# 3; loss of righting reflex, slight convulsions
# 4; severe convulsions, coma
# The median neurological deficit scores of the drug-treated groups were compared with that of saline-treated control. Statistical analysis was done using the Mann-Whitney U-test.
# [7] = day 1, 0 flaccid paralysis to 5 normal gait, Ex. 20 **p < 0.01
# [8] = day 3, Ex. 7 *p < 0.05, Ex. 20 **p < 0.01
inhibition at 1 µM (5-lipoxygenase) [%],inhibition at 0.1 µM (5-lipoxygenase) [%],inhibition at 0.01 µM (5-lipoxygenase) [%],IC50 [5] [nM],SMILES,Score (mean behavioral score) [1],Percent inhibition (of mean score) [1] [%],"neurological score (median value) [2, 7]","neurological score (median value) [2, 8]","neurological score (median value) ([2]; day 7, Ex. 20 **p < 0.01)","neurological score (median value) ([2]; day 14, Ex. 20 *p < 0.05)",neurological impairment caused by spinal cord compression (in words) [2],"Incidence of rats showing urinary incontinence ([4]; day 1, Ex. 20 **p < 0.01)","Incidence of rats showing urinary incontinence ([4]; day 2, Ex. 20 **p < 0.01)","Incidence of rats showing urinary incontinence [4, 8]","Incidence of rats showing urinary incontinence ([4]; day 5, Ex. 20 **p < 0.01)","Incidence of rats showing urinary incontinence ([4]; day 7, Ex. 7 *p < 0.05)",Incidence of rats showing urinary incontinence ([4]; day 10),Incidence of rats showing urinary incontinence ([4]; day 14),incidence of urinary incontinence (in words) [4],also measured
–,–,–,–,Cc1c(C)c2c(c(C)c1O)C(c1ccc(Br)cc1)C(C)(C)O2 (centres unmarked) [Example 11],0.7,84,–,–,–,–,–,–,–,–,–,–,–,–,–,–
99,43,13,230,"Cc1c(C)c2c(c(C)c1O)C(c1ccc(F)cc1)C(C)(C)O2 (centres unmarked) [Example 7, 3-(4-fluorophenyl)-5-hydroxy-2,2,4,6,7-pentamethyl-2,3-dihydrobenzofuran]",0.3,93,2,2,3,4,ameliorated the neurological impairment,42.9,14.3,7.1,7.1,0,0,0,reduced the incidence of urinary incontinence,inhibition at 100 µM ([3]; 10^-4 M): 49%; inhibition at 10 µM ([3]; 10^-5 M): 35%
100,42,36,25,"Cc1c(C)c2c(c(C)c1O)C(c1ccc(C(C)C)cc1)C(C)(C)O2 (centres unmarked) [Example 20, 5-hydroxy-2,2,4,6,7-pentamethyl-3-(4-isopropylphenyl)-2,3-dihydrobenzofuran]",–,–,2,3,4,4,ameliorated the neurological impairment,0,0,0,0,7.1,7.1,7.1,reduced the incidence of urinary incontinence,"neurological deficit score (median value) ([6]; 10 mg/kg, day 1, 0 normal to 5 death): 2; neurological deficit score (median value) ([6]; 10 mg/kg, day 2): 2; neurological deficit score (median value) ([6]; 10 mg/kg, day 3, *p < 0.05): 1.5; neurological deficit score (median value) ([6]; 10 mg/kg, day 5, **p < 0.01): 1; neurological deficit score (median value) ([6]; 10 mg/kg, day 7, *p < 0.05): 1; neurological deficit score (median value) ([6]; 10 mg/kg, day 10, **p < 0.01): 0; neurological deficit score (median value) ([6]; 10 mg/kg, day 14): 0; neurological deficit score (median value) ([6]; 40 mg/kg, day 1, 0 normal to 5 death): 2; neurological deficit score (median value) ([6]; 40 mg/kg, day 2): 2; neurological deficit score (median value) ([6]; 40 mg/kg, day 3, **p < 0.01): 1; neurological deficit score (median value) ([6]; 40 mg/kg, day 5, **p < 0.01): 1; neurological deficit score (median value) ([6]; 40 mg/kg, day 7, *p < 0.05): 1; neurological deficit score (median value) ([6]; 40 mg/kg, day 10, *p < 0.05): 0; neurological deficits caused by transient cerebral ischemia (in words) ([6]; 10 and 40 mg/kg): significantly ameliorated the neurological deficits"
–,–,–,–,Cc1c(C)c2c(c(C)c1O)C(c1ccc(Cl)cc1)C(C)(C)O2 (centres unmarked) [Example 13],0.7,83,–,–,–,–,–,–,–,–,–,–,–,–,–,–

# From patent US4857516A, “Coumaran derivatives and their pharmaceutical use” (Takeda Chemical Industries, Ltd., priority 1986, dated 1989)
